Measured values from patent publication US20250375129A1, “USE OF BLINK REFLEX FOR ATTENTION-DEFICIT/HYPERACTIVITY DISORDER (ADHD) RESPONSE MONITORING AND/OR TREATMENT SELECTION” (Blinktbi, Inc., priority 2022, published 2025).
Entries after “also recorded” stand apart in the source; their conditions may differ.

Tested on: blink reflex
Assay: Blink reflex response parameters in ADHD patients before and 1 hour after their prescribed ADHD medication versus non-ADHD controls (pilot study)
Assay type: in vivo, humans
Details: for Max closing velocity, effect of medication type (in words): compared to controls and participants before taking their ADHD medications; for Delta 30, Estimate of Fixed Effects / Excursions, Estimate of Fixed Effects / Initial Velocity, Estimate of Fixed Effects / Max Closing Velocity, Estimate of Fixed Effects / Differential Latency, Estimate of Fixed Effects: Model 3 mixed model by medication type; for Delta 30, Estimate of Fixed Effects / Excursions, Estimate of Fixed Effects / Initial Velocity, Estimate of Fixed Effects / Max Closing Velocity, Estimate of Fixed Effects / Differential Latency, Estimate of Fixed Effects / Max Closing Velocity, Estimate of Fixed Effects, further analysis: relative to Med_type = 4 (Control); for Differential Latency, Estimate of Fixed Effects: AMP n=20, ATX n=2, MPH n=2; for Max Closing Velocity, Estimate of Fixed Effects, further analysis: Model 3 with confounders hours of sleep, urine specific gravity and age

SMILES	Delta 30, effect of medication type (in words) (Model 3)	Differential Latency, effect of medication type (in words) (Model 3)	Max closing velocity, effect of medication type (in words) (Model 3)	Delta 30, Estimate of Fixed Effects	Excursions, Estimate of Fixed Effects	Initial Velocity, Estimate of Fixed Effects	Max Closing Velocity, Estimate of Fixed Effects	Differential Latency, Estimate of Fixed Effects	Max Closing Velocity, Estimate of Fixed Effects, further analysis	Excursions, effect of medication type (in words) (Model 3)	Initial Velocity, effect of medication type (in words) (Model 3)	Blink reflex parameters predictive for treatment type (in words) (Model 3 conclusion, ATX=2, MPH=2, AMP=20 participants)
CNCC[C@@H](Oc1ccccc1C)c1ccccc1 [ATX]	statistically significant	statistically significant	associated with an increase	−4.184	13.866	.532	2.659	−2.456	2.277	–	–	–
COC(=O)C(c1ccccc1)C1CCCCN1 (stereo not drawn) [MPH, methylphenidate]	statistically significant	statistically significant	associated with an increase	−1.756	14.707	.578	1.378	−0.980	1.265	statistically significant	statistically significant; also recorded: slight increase	particularly predictive
